From patent US4257773A, “Assay method and compounds” (Burroughs Wellcome Co., priority 1979, dated 1981) come the findings set out here.

The test system of the assay is opiate receptor. Nature of the assay: Specific binding affinity of radio-iodinated peaks for the opiate receptor. Conditions: monoiodinated (first peak) compared with diiodinated (second peak) compound. As for the experimental part:
The material comprising this peak was applied to a Sephadex 2-(diethylamino)ethyl ether column and eluted with sodium borate buffer (12.5 mM, pH 9.0, 0.1 N sodium chloride).

For `CC(C)C[C@H](NC(=O)[C@H](Cc1ccccc1)NC(=O)CNC(=O)[C@@H](C)NC(=O)[C@@H](N)Cc1ccc(O)c([125I])c1)C(=O)O` [material of the first peak, H.Tyr(3-^125 I).D-Ala.Gly.Phe.Leu.OH], the “specific binding affinity (for the opiate receptor)” value is on record as “greater specific binding affinity (for the opiate receptor) than that of the second peak”.
